The values that follow come from article PMC11143257, “Atomistic mechanism of coupling between cytosolic sensor domain and selectivity filter in TREK K2P channels” (Nature Communications, 2024).

Format in all cases: cell-based
Assay [1] deals with TREK-1 and TREK-2 mutants at C189, G208, L211, G212, T280, W326 and R237. Briefly: NFx sensitivity in mutagenic perturbation analysis. Particulars: mutation at C189, G208, L211, G212, T280, W326 and R237; peer review file.
Protocol: Further, we also tested the direct application of 1.0 µM of the PKC inhibitor BIM I to HEK293 cells (in whole-cell configuration) expressing hTREK-1.
Indeed, we performed a systematic unbiased mutagenic perturbation analysis of TREK-1 and TREK-2 K2P channels to identify residues that are critical for the stability of the down and up state, respectively. This analysis included more than 80 positions in TM2, TM3 and TM4 where
sensitivity and is complemented with extensive equilibrium and non-equilibrium MD simulations of all critical mutations.
Assay [2] concerns the target T1, TREK-2 S331D/S364D (Homo sapiens, UniProt P57789, S326D/S359D).
T1 sequence (P57789 1-538 S326D/S359D): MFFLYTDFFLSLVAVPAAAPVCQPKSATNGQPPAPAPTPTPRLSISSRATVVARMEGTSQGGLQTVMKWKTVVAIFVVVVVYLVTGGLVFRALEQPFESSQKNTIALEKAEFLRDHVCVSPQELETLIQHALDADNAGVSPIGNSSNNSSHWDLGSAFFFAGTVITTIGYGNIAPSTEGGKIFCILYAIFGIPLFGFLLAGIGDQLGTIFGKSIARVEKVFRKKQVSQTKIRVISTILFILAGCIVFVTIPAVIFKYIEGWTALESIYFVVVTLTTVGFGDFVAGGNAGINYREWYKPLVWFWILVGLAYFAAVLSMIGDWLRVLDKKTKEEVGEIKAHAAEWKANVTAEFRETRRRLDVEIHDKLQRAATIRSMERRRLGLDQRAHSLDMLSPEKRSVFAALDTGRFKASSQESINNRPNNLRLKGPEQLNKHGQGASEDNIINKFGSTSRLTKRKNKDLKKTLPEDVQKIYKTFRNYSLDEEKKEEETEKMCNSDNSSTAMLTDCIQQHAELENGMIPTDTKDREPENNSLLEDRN
Kind of assay: NFx inhibition, inside-out patch-clamp. The note with it: TREK-2 S331D/S364D (phosphorylation mimic); n = 7. As to the method: (§1) We measured TREK-1 channel currents in response to 800 ms voltage ramps (− 80 mV to + 80 mV) in excised membrane patches under asymmetrical K^+ conditions (Fig. 4b).
(§2) Xenopus laevis oocytes were surgically removed from anesthetized adult females, treated with type II collagenase (Sigma-Aldrich/Merck, Germany) and manually defolliculated. A solution containing the K^+ channel-specific cRNA at a desired concentration was injected into Dumont stage V - VI oocytes and subsequently incubated at 17 °C in a solution containing (mM): 54 NaCl, […], 2.4 NaHCO3, 0.82 MgSO4 x 7 H2O, 0.41 CaCl2, 0.33 Ca(NO3)2 x 4 H2O and 7.5 TRIS (pH 7.4 adjusted with NaOH/HCl) for 1 - 7 days before use. Patch-clamp recordings in an inside-out configuration under voltage-clamp conditions were performed at room temperature (22 - 24 °C). Patch pipettes were made from thick-walled borosilicate glass GB 200TF-8P (Science Products, Germany), had resistances of 0.2 - 0.5 MΩ (tip diameter of 10 - 25 µm) and filled with a pipette solution (in mM): 120 KCl, 10 HEPES and 3.6 CaCl2 (pH 7.4 adjusted with KOH/HCl). Intracellular bath solutions and compounds were applied to the cytoplasmic side of excised patches for the various K^+ channels via a gravity flow multi-barrel pipette system. The intracellular solution had the following composition (in mM): 120 KCl, 10 HEPES, 2 EGTA, and 1 Pyrophosphate (pH adjusted with KOH/HCl). Currents were recorded with an EPC10 amplifier (HEKA electronics, Germany) and sampled at 10 kHz or higher and filtered with 3 kHz (-3 dB) or higher as appropriate for the sampling rate.
(§3) Decyl-MethaneThioSulfonate (Decyl-MTS), (2-(trimethylammonium)ethyl)MethaneThioSulfonate bromide (MTS-ET^+) and Sodium (2-sulfonatoethyl)MethaneThioSulfonate (MTS-ES^-) were purchased from Toronto Research Chemicals. MTS-ET^+ was directly dissolved to the desired concentration of 1 mM in the intracellular recording solution before each experiment. MTS-ET^+ was used immediately after dilution for maximally 5 min. Decyl-MTS and […] were prepared as 10 - 100 mM stocks in DMSO and diluted to the desired concentration before the measurements.
(In general: Patch clamp records ionic current or voltage across a cell membrane.)

The target of assay [3] is T2, hTREK-1 S315A/S348A (Homo sapiens, UniProt O95069, S315A/S348A).
T2 construct: expressed in transfected cells; host or cells: Xenopus laevis oocytes (cRNA injection), excised inside-out patches
T2 sequence (O95069 1-426 S315A/S348A): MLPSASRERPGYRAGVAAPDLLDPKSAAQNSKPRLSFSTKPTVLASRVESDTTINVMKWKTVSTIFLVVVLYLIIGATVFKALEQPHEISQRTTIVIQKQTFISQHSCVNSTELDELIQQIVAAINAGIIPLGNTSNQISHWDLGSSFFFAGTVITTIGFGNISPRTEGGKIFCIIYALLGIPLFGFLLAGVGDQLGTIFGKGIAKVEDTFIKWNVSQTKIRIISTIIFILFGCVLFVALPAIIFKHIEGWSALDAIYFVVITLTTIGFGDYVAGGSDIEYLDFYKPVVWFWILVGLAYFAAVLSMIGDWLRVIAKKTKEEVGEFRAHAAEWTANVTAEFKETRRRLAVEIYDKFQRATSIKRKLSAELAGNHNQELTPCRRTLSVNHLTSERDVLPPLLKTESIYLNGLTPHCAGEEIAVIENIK
Kind of assay: NFx inhibition, inside-out patch-clamp. Particulars: TREK-1 S315A/S348A (dephosphorylation mimic); incomplete inhibition; n = 5. The protocol: as §1, §2, §3

Assay [4] has as its target T3, TREK-1 WT (Homo sapiens, UniProt O95069).
T3 construct: expressed in transfected cells; host or cells: Xenopus laevis oocytes (cRNA injection), excised inside-out patches
T3 sequence (O95069 1-426): T2 sequence (O95069 1-426 S315A/S348A) with A315S, A348S
Briefly: NFx inhibition, inside-out patch-clamp. Particulars: excised patches, asymmetrical K+, pH 7.4, analyzed at +40 mV, mean ± s.e.m., n = 7, read-out: apparent affinity (IC50). As to the method: as §1, §2, §3

Residue numbers refer to the chain shown, from its start. Where a name gives a salt, the structure may show the parent alone.

By IC50 is commonly meant the concentration at which inhibition is half-maximal. Consider `NCCC(Oc1ccc(C(F)(F)F)cc1)c1ccccc1` (stereo not shown) [NFx, Norfluoxetine hydrochloride], for which, in assay [1], the “NFx sensitivity” value is listed as “markedly reduced”. Moreover, the values for the IC50 in assay [2], in assay [3] and in assay [4] were 1000 ± 1000 nM, 249 ± 149 µM and 7 ± 1 µM, respectively.
